According to the kinase profiling compilation of Christmann-Franck et al. (2016):

What was measured:
Assay in all cases: KINOMEscan competition binding
Details in all cases: compound 10.0 µM
AAK1 (human) = AAK1 (human) (UniProt Q2M2I8)
STK17B (human) = STK17B (human) (UniProt O94768)
STK38L (human) = STK38L (human) (UniProt Q9Y2H1)
NEK6 (human) = NEK6 (human) (UniProt Q9HC98)
NUAK1 (human) = NUAK1 (human) (UniProt O60285)
RPS6KA6 KD1 (human) = RPS6KA6 KD1 (human) (UniProt Q9UK32)
PTK2B (human) = PTK2B (human) (UniProt Q14289)
MINK1 (human) = MINK1 (human) (UniProt Q8N4C8)
GSK3A (human) = GSK3A (human) (UniProt P49840)
CRK2 (P.falciparum) = CRK2 (P.falciparum) (UniProt P61075)
DAPK3 (human) = DAPK3 (human) (UniProt O43293)
PHKG2 (human) = PHKG2 (human) (UniProt P15735)
MAP3K4 (human) = MAP3K4 (human) (UniProt Q9Y6R4)
MAP3K6 (human) = MAP3K6 (human) (UniProt O95382)
CDK16 (human) = CDK16 (human) (UniProt Q00536)
CDK11B (human) = CDK11B (human) (UniProt P21127)
Sequence of CDK11B (human) (P21127 whole entry, looked up): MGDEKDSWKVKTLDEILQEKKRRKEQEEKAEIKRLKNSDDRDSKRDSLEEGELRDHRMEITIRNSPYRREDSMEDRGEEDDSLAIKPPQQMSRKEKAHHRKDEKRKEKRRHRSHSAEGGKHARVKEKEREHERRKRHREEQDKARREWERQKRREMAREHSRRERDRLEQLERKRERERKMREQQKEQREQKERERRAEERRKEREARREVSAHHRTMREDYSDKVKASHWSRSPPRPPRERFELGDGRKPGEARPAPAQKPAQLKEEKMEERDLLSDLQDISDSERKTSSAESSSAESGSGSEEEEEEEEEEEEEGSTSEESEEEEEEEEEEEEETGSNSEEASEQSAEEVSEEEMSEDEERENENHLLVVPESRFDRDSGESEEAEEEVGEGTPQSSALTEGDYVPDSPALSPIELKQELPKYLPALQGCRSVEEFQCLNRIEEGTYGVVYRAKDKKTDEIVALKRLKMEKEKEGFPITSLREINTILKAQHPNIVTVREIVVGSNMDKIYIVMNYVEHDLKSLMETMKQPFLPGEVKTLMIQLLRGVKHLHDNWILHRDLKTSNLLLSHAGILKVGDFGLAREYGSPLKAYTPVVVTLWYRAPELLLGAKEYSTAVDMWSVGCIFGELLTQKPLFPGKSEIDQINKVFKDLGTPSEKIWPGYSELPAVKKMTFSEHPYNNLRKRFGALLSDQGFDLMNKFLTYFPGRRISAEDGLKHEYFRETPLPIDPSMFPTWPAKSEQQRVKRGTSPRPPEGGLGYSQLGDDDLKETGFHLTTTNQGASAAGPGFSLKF

MAPK3 (human) = MAPK3 (human) (UniProt P27361)
PKN3 (M.tuberculosis) = PKN3 (M.tuberculosis) (UniProt Q6P5Z2)
MET (human) = MET (human) (UniProt P08581)
CDK13 (human) = CDK13 (human) (UniProt Q14004)
PIM1 (human) = PIM1 (human) (UniProt P11309)
BRSK2 (human) = BRSK2 (human) (UniProt Q8IWQ3)
FYN (human) = FYN (human) (UniProt P06241)
Sequence of FYN (human) (P06241 whole entry, looked up): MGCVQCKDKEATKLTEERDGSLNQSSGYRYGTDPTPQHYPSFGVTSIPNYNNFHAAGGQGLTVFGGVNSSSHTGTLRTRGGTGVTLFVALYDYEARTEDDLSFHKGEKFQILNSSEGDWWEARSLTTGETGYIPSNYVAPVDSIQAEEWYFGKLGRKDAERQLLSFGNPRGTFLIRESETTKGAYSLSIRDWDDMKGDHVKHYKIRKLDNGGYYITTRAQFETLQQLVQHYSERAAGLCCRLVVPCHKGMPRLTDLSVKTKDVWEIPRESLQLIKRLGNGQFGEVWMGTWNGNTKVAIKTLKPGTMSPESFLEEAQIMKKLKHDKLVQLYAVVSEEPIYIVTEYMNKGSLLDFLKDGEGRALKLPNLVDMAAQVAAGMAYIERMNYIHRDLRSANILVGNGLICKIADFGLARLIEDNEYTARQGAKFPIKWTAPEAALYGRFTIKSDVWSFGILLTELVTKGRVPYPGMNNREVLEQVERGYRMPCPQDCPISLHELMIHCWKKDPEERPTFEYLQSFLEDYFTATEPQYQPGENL

EPHB1 (human) = EPHB1 (human) (UniProt P54762)
FRK (human) = FRK (human) (UniProt P42685)
STK32B (human) = STK32B (human) (UniProt Q9NY57)
Sequence of STK32B (human) (Q9NY57 whole entry, looked up): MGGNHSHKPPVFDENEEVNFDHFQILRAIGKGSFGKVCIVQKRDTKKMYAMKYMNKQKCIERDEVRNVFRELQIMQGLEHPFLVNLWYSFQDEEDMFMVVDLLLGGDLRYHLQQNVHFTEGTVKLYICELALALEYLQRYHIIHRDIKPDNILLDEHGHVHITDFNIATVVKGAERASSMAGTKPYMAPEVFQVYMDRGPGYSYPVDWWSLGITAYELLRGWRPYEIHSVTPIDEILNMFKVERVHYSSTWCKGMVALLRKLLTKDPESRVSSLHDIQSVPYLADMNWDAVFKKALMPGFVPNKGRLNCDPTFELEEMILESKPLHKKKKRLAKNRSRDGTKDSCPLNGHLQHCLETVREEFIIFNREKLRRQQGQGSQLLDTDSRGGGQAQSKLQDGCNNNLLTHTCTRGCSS

CSNK1G2 (human) = CSNK1G2 (human) (UniProt P78368)
[1] = tested on: KIT (human), P10721 [L576P]
MAP3K5 (human) = MAP3K5 (human) (UniProt Q99683)
Sequence of MAP3K5 (human) (Q99683 whole entry, looked up): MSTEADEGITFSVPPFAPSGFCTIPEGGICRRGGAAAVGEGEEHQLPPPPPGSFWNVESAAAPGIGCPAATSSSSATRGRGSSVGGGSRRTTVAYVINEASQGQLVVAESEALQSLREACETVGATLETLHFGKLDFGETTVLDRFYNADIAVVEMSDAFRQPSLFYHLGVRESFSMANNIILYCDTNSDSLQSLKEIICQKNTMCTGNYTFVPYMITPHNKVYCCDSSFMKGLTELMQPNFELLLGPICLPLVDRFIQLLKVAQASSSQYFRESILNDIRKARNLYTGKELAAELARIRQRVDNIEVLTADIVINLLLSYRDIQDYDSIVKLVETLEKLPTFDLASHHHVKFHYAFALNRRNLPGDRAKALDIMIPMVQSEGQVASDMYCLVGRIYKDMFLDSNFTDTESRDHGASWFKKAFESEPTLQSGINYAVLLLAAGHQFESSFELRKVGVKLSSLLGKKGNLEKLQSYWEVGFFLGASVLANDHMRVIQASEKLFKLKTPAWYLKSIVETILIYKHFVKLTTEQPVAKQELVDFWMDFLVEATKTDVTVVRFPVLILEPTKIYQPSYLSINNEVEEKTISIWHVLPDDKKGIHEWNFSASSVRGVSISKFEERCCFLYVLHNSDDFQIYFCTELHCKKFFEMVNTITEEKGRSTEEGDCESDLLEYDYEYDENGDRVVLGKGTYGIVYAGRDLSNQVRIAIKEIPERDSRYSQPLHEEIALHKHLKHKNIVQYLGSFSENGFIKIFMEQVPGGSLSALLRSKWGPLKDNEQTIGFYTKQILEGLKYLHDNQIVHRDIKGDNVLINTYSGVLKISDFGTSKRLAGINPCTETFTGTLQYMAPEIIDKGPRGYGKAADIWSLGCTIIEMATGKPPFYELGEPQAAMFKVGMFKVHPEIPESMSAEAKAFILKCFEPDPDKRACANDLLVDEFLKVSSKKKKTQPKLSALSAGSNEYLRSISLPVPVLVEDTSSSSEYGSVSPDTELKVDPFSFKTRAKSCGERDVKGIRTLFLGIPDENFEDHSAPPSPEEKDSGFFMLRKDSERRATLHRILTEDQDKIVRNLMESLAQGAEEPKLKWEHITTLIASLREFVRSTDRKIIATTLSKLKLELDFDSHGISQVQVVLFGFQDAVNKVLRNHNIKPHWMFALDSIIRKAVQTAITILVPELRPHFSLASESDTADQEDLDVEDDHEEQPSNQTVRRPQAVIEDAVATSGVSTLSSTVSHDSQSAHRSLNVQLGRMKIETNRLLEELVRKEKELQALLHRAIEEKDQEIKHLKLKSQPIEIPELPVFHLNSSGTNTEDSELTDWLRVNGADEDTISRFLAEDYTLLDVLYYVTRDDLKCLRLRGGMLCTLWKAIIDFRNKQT

MAP4K1 (human) = MAP4K1 (human) (UniProt Q92918)
ERBB2 (human) = ERBB2 (human) (UniProt P04626)
MST4 (human) = MST4 (human) (UniProt Q9P289)
ULK3 (human) = ULK3 (human) (UniProt Q6PHR2)
[2] = tested on: FLT3 (human), P36888 [D835H]
FGR (human) = FGR (human) (UniProt P09769)
Sequence of FGR (human) (P09769 whole entry, looked up): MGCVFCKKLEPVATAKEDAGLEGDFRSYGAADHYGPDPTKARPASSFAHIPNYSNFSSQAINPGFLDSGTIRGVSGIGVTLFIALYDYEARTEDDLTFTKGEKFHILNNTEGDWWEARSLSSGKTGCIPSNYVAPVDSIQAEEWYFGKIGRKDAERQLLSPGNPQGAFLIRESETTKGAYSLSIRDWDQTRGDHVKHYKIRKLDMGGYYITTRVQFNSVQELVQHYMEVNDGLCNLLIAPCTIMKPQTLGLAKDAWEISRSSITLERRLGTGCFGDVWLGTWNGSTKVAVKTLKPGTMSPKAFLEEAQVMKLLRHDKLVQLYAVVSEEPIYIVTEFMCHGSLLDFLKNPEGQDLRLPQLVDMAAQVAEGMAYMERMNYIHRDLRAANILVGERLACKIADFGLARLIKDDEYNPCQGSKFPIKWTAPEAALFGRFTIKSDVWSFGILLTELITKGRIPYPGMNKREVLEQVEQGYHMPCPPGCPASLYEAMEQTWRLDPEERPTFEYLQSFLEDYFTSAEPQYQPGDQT

BLK (human) = BLK (human) (UniProt P51451)
FES (human) = FES (human) (UniProt P07332)
LYN (human) = LYN (human) (UniProt P07948)
MAST1 (human) = MAST1 (human) (UniProt Q9Y2H9)
PRKG1 (human) = PRKG1 (human) (UniProt Q13976)

Sequence of NUAK1 (human) (O60285 whole entry, looked up): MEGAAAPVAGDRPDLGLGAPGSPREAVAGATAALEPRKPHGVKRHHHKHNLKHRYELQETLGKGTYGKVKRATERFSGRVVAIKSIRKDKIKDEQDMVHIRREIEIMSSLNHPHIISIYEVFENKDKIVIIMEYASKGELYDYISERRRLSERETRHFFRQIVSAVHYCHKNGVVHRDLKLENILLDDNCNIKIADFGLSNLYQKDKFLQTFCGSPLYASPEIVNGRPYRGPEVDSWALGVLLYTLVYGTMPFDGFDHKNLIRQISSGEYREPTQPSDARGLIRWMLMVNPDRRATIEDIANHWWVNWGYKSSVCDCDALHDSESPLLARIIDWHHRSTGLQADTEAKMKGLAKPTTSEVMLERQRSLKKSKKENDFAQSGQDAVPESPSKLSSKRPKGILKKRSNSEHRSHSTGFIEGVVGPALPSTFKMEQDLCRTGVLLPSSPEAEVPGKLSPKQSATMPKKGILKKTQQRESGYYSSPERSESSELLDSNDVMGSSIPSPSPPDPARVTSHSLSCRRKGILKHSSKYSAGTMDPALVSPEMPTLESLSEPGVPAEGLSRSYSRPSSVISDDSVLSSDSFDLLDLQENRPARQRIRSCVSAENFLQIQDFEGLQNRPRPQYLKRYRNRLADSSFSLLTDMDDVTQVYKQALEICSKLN
Sequence of STK38L (human) (Q9Y2H1 whole entry, looked up): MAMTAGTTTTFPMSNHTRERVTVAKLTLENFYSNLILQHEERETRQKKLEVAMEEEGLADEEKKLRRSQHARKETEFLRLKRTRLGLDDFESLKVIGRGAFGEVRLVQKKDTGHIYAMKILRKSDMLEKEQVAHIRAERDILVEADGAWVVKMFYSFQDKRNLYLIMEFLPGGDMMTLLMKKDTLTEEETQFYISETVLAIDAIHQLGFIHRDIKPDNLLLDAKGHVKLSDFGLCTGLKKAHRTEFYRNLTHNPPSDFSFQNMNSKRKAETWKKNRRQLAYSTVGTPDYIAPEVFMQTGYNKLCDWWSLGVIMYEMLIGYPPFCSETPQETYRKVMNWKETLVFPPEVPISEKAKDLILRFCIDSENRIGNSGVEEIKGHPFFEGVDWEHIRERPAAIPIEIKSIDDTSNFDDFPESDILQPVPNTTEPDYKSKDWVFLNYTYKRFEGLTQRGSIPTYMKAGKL

Structure (SMILES)	kinase still bound, per cent of control (AAK1 (human)) [%]	kinase still bound, per cent of control (STK17B (human)) [%]	kinase still bound, per cent of control (STK38L (human)) [%]	kinase still bound, per cent of control (NEK6 (human)) [%]	kinase still bound, per cent of control (NUAK1 (human)) [%]	kinase still bound, per cent of control (RPS6KA6 KD1 (human)) [%]	kinase still bound, per cent of control (PTK2B (human)) [%]	kinase still bound, per cent of control (MINK1 (human)) [%]	kinase still bound, per cent of control (GSK3A (human)) [%]	kinase still bound, per cent of control (CRK2 (P.falciparum)) [%]	kinase still bound, per cent of control (DAPK3 (human)) [%]	kinase still bound, per cent of control (PHKG2 (human)) [%]	kinase still bound, per cent of control (MAP3K4 (human)) [%]	kinase still bound, per cent of control (MAP3K6 (human)) [%]	kinase still bound, per cent of control (CDK16 (human)) [%]	kinase still bound, per cent of control (CDK11B (human)) [%]	kinase still bound, per cent of control (MAPK3 (human)) [%]	kinase still bound, per cent of control (PKN3 (M.tuberculosis)) [%]	kinase still bound, per cent of control (MET (human)) [%]	kinase still bound, per cent of control (CDK13 (human)) [%]	also measured
CCN1CCN(C(=O)Cc2ccc(Nc3ncc(F)c(Nc4ccc(C(=O)Nc5ccccc5Cl)cc4)n3)cc2)CC1	7	13	60	8.4	18	37	33	57	88	100	5.2	42	83	86	40	87	100	5	8.6	100	kinase still bound, per cent of control (PIM1 (human)): 60%; kinase still bound, per cent of control (BRSK2 (human)): 82%; kinase still bound, per cent of control (FYN (human)): 41%; kinase still bound, per cent of control (EPHB1 (human)): 66%; kinase still bound, per cent of control (FRK (human)): 28%; kinase still bound, per cent of control (STK32B (human)): 100%; kinase still bound, per cent of control (CSNK1G2 (human)): 58%; kinase still bound, per cent of control [1]: 3.2%; kinase still bound, per cent of control (MAP3K5 (human)): 100%; kinase still bound, per cent of control (MAP4K1 (human)): 38%; kinase still bound, per cent of control (ERBB2 (human)): 100%; kinase still bound, per cent of control (MST4 (human)): 43%; kinase still bound, per cent of control (ULK3 (human)): 1.5%; kinase still bound, per cent of control [2]: 0.6%; kinase still bound, per cent of control (FGR (human)): 43%; kinase still bound, per cent of control (BLK (human)): 28%; kinase still bound, per cent of control (FES (human)): 48%; kinase still bound, per cent of control (LYN (human)): 46%; kinase still bound, per cent of control (MAST1 (human)): 100%; kinase still bound, per cent of control (PRKG1 (human)): 100%
C=CC(=O)Nc1cc(-n2c(=O)ccc3cnc4ccc(-c5cn[nH]c5)cc4c32)ccc1C	18	100	100	92	11	74	96	31	13	100	61	79	100	75	97	100	100	12	89	100	kinase still bound, per cent of control (PIM1 (human)): 70%; kinase still bound, per cent of control (BRSK2 (human)): 67%; kinase still bound, per cent of control (FYN (human)): 90%; kinase still bound, per cent of control (EPHB1 (human)): 94%; kinase still bound, per cent of control (FRK (human)): 99%; kinase still bound, per cent of control (STK32B (human)): 100%; kinase still bound, per cent of control (CSNK1G2 (human)): 94%; kinase still bound, per cent of control [1]: 68%; kinase still bound, per cent of control (MAP3K5 (human)): 100%; kinase still bound, per cent of control (MAP4K1 (human)): 90%; kinase still bound, per cent of control (ERBB2 (human)): 42%; kinase still bound, per cent of control (MST4 (human)): 79%; kinase still bound, per cent of control (ULK3 (human)): 97%; kinase still bound, per cent of control [2]: 14%; kinase still bound, per cent of control (FGR (human)): 57%; kinase still bound, per cent of control (BLK (human)): 2.4%; kinase still bound, per cent of control (FES (human)): 100%; kinase still bound, per cent of control (LYN (human)): 100%; kinase still bound, per cent of control (MAST1 (human)): 85%; kinase still bound, per cent of control (PRKG1 (human)): 91%
COc1cc2ncnc(-n3nc(-c4ccccn4)nc3N)c2cc1OC	6.9	9.4	69	0.15	100	20	75	40	73	94	4.6	36	100	64	47	93	67	7.1	55	17	kinase still bound, per cent of control (PIM1 (human)): 15%; kinase still bound, per cent of control (BRSK2 (human)): 14%; kinase still bound, per cent of control (FYN (human)): 25%; kinase still bound, per cent of control (EPHB1 (human)): 32%; kinase still bound, per cent of control (FRK (human)): 19%; kinase still bound, per cent of control (STK32B (human)): 100%; kinase still bound, per cent of control (CSNK1G2 (human)): 1.1%; kinase still bound, per cent of control [1]: 4.5%; kinase still bound, per cent of control (MAP3K5 (human)): 100%; kinase still bound, per cent of control (MAP4K1 (human)): 56%; kinase still bound, per cent of control (ERBB2 (human)): 93%; kinase still bound, per cent of control (MST4 (human)): 68%; kinase still bound, per cent of control (ULK3 (human)): 10%; kinase still bound, per cent of control [2]: 3.2%; kinase still bound, per cent of control (FGR (human)): 36%; kinase still bound, per cent of control (BLK (human)): 8.8%; kinase still bound, per cent of control (FES (human)): 99%; kinase still bound, per cent of control (LYN (human)): 48%; kinase still bound, per cent of control (MAST1 (human)): 73%; kinase still bound, per cent of control (PRKG1 (human)): 100%
